In ChEMBL document CHEMBL1770057, “Synthesis and antibacterial activity of alaremycin derivatives for the porphobilinogen synthase” (Bioorg Med Chem Lett, 2011):

Assays:
[1] = Inhibition of Pseudomonas fluorescens porphobilinogen synthase by PBGS assay
Pseudomonas fluorescens = test: Ratio of IC50 of Alaremycin to IC50 of compound for Pseudomonas fluorescens porphobilinogen synthase

SMILES | IC50 [1] [mM] | Ratio IC50 (Pseudomonas fluorescens)
C[C@@H](NC(=O)C(F)(F)F)C(=O)CCC(=O)O | 4.1 | –
O=C(O)CCC(=O)CNC(=O)CC(F)(F)F | 0.5 | –
O=C(O)CCC(=O)CNC(=O)C(F)(F)F | 8 | –
CC(=O)N[C@H](C)C(=O)CCC(=O)O [ALAREMYCIN 2] | 0.7 | –
CC(=O)N[C@@H](C)C(=O)CCC(=O)O | 1.1 | –
C[C@H](NC(=O)C(F)(F)F)C(=O)CCC(=O)O | 3 | –
CC(=O)NCC(=O)CCC(=O)O | 2.5 | –

Further lines, results first:

IC50 [1] [mM] | Ratio IC50 (Pseudomonas fluorescens) | SMILES
2.6 | – | C=C(NC(C)=O)C(=O)CCC(=O)O [ALAREMYCIN]
1.3 | – | O=C(O)CCC(=O)CNC(=O)CCC(F)(F)F
0.9 | – | C=C(NC(=O)CC(F)(F)F)C(=O)CCC(=O)O
0.051 | 50 | C=C(NC(=O)CCC(F)(F)F)C(=O)CCC(=O)O
0.022 | 100 | C=C(NC(=O)C(F)(F)F)C(=O)CCC(=O)O
